Assay results: US20200024278A1, “COMPOSITION COMPRISING ANTIBIOTIC COMPOUND AND AN HETEROCYCLIC COMPOUND AND THEIR USE IN PREVENTING OR TREATING BACTERIAL INFECTIONS” (MUTABILIS, priority 2016, published 2020)

Key:
Test in all cases: MIC, broth microdilution (CLSI), substance alone or ATB combined with compound at 4 or 8 μg/mL
ECO UFR39 = format: cell-based, E. coli; details: ECO UFR39; for MIC ATB combined with Example: Example @8 μg/ml; for MIC ATB combined with Example compound: compound @8 μg/ml
Summary of the method: (§1)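 CLSI broth microdilution in cation-adjusted Mueller-Hinton broth, 5·10^5 CFU/mL log-phase inoculum, 16-20 h at 35 °C in ambient air. Fosfomycin assays supplemented with 25 μg/ml glucose-6-phosphate.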

ECO 190317 = format: cell-based, E. coli; details: ECO 190317; for MIC ATB combined with Example: Example @8 μg/ml
Summary of the method: as §1

ECL P99 = format: cell-based, E. cloacae; details: ECL P99; for MIC ATB combined with Example: Example @8 μg/ml
Summary of the method: as §1

SPN 49619 = format: cell-based, S. pneumoniae; details: SPN 49619; for MIC ATB combined with Example: Example @8 μg/ml; for MIC ATB combined with Example compound: compound @8 μg/ml
Summary of the method: as §1

ABA UFR156 = format: cell-based, A. baumannii; details: substance alone
Summary of the method: as §1

ABA UFR152 = format: cell-based, A. baumannii; details: substance alone
Summary of the method: as §1

SAU 29213 = format: cell-based, S. aureus; details: for MIC ATB combined with Example / MIC ATB combined with Example compound: SAU 29213; for MIC ATB combined with Example: Example @8 μg/ml; for MIC ATB combined with Example compound: compound @8 μg/ml
Summary of the method: as §1

KPN UFR42 = format: cell-based, K. pneumoniae; details: KPN UFR42; for MIC ATB combined with Example: Example @8 μg/ml; for MIC ATB combined with Example compound: compound @8 μg/ml
Summary of the method: as §1

KPN BAA-1898 = format: cell-based, K. pneumoniae; details: KPN BAA-1898; for MIC ATB combined with Example: Example @8 μg/ml
Summary of the method: as §1

KPN 6299 = format: cell-based, K. pneumoniae; details: for MIC ATB combined with Example: Example @8 μg/ml
Summary of the method: as §1

PAE 105250 = format: cell-based, P. aeruginosa; details: PAE 105250; for MIC ATB combined with Example: Example @8 μg/ml; for MIC ATB combined with Example compound: compound @8 μg/ml
Summary of the method: as §1

PAE UFR48 = format: cell-based, P. aeruginosa; details: PAE UFR48; for MIC ATB combined with Example: Example @8 μg/ml; for MIC ATB combined with Example compound: compound @8 μg/ml
Summary of the method: as §1

PAE UFR90 = format: cell-based, P. aeruginosa; details: PAE UFR90; for MIC ATB combined with Example: Example @8 μg/ml; for MIC ATB combined with Example compound: compound @8 μg/ml
Summary of the method: as §1

O=C1N2CC(n3ccnn3)=CC(C2)N1OS(=O)(=O)[O-].[Na+] (stereo not drawn) [Example 12, sodium [7-oxo-3-(triazol-1-yl)-1,6-diazabicyclo[3.2.1]oct-3-en-6-yl] sulfate]
1 µg/mL: MIC (ECO UFR39; substance alone) | MIC (ECO 190317; substance alone) | MIC (ECL P99; substance alone) | MIC ATB combined with Example (PAE 105250; ATB MEM) | MIC ATB combined with Example (PAE UFR90; ATB MEM) | MIC ATB combined with Example compound (PAE UFR90; MIC of CIP)
<0.0078 µg/mL: MIC ATB combined with Example compound (SAU 29213; MIC of LZD)
>128 µg/mL: MIC ATB combined with Example (PAE 105250; ATB FOS)
<0.0010 µg/mL: MIC ATB combined with Example compound (SPN 49619; MIC of CLI) | MIC ATB combined with Example compound (SAU 29213; MIC of CLI)
32 µg/mL: MIC ATB combined with Example (PAE 105250; ATB PIP)
0.016 µg/mL: MIC ATB combined with Example compound (SPN 49619; MIC of VAN)
>32 µg/mL: MIC ATB combined with Example (SPN 49619; ATB ATM) | MIC (ABA UFR156) | MIC (ABA UFR152) | MIC (PAE 105250; substance alone) | MIC ATB combined with Example compound (PAE UFR48; MIC of CPO) | MIC (PAE UFR48; substance alone) | MIC ATB combined with Example (PAE UFR90; ATB PIP) | MIC (PAE UFR90; substance alone)
0.5 µg/mL: MIC ATB combined with Example (PAE UFR48; ATB MEM)
<0.125 µg/mL: MIC ATB combined with Example (ECO UFR39; ATB FOS) | MIC ATB combined with Example (ECO 190317; ATB FOS) | MIC ATB combined with Example (ECL P99; ATB FOS) | MIC ATB combined with Example (SAU 29213; ATB FOS) | MIC ATB combined with Example (KPN UFR42; ATB FOS) | MIC ATB combined with Example (KPN BAA-1898; ATB FOS) | MIC ATB combined with Example (KPN 6299; ATB FOS)
0.031 µg/mL: MIC ATB combined with Example compound (SPN 49619; MIC of DAP)
<=0.031 μg/mL: MIC ATB combined with Example (SPN 49619; ATB FEP) | MIC ATB combined with Example (SPN 49619; ATB MEM) | MIC ATB combined with Example compound (SPN 49619; MIC of CPO)
<0.0039 µg/mL: MIC ATB combined with Example compound (SAU 29213; MIC of VAN)
16 µg/mL: MIC ATB combined with Example (PAE UFR48; ATB FEP) | MIC ATB combined with Example (PAE UFR48; ATB FOS) | MIC ATB combined with Example (PAE UFR48; ATB PIP) | MIC ATB combined with Example (PAE UFR90; ATB ATM)
2 µg/mL: MIC (KPN BAA-1898; substance alone) | MIC ATB combined with Example (PAE 105250; ATB FEP)
0.25 µg/mL: MIC ATB combined with Example (SPN 49619; ATB PIP) | MIC ATB combined with Example compound (SPN 49619; MIC of LZD)
4 µg/mL: MIC (KPN UFR42; substance alone) | MIC ATB combined with Example compound (PAE UFR48; MIC of CIP) | MIC ATB combined with Example (PAE UFR90; ATB FEP)
0.125 µg/mL: MIC ATB combined with Example compound (SPN 49619; MIC of SYN) | MIC ATB combined with Example compound (PAE 105250; MIC of CIP)
0.063 µg/mL: MIC ATB combined with Example compound (SPN 49619; MIC of CIP)
8 µg/mL: MIC ATB combined with Example (SPN 49619; ATB FOS) | MIC (SPN 49619; substance alone) | MIC (SAU 29213; substance alone, SAU 29213 (MSSA 29213)) | MIC ATB combined with Example (PAE 105250; ATB ATM) | MIC ATB combined with Example compound (PAE 105250; MIC of CPO) | MIC ATB combined with Example (PAE UFR48; ATB ATM) | MIC ATB combined with Example (PAE UFR90; ATB FOS) | MIC ATB combined with Example compound (PAE UFR90; MIC of CPO)
0.00049 µg/mL: MIC ATB combined with Example compound (SPN 49619; MIC of RIF)
<0.031 µg/mL: MIC ATB combined with Example (ECO UFR39; ATB ATM) | MIC ATB combined with Example (ECO UFR39; ATB FEP) | MIC ATB combined with Example (ECO UFR39; ATB MEM) | MIC ATB combined with Example (ECO UFR39; ATB PIP) | MIC ATB combined with Example compound (ECO UFR39; MIC of CIP) | MIC ATB combined with Example compound (ECO UFR39; MIC of CPO) | MIC ATB combined with Example (ECO 190317; ATB ATM) | MIC ATB combined with Example (ECO 190317; ATB FEP) | MIC ATB combined with Example (ECO 190317; ATB MEM) | MIC ATB combined with Example (ECO 190317; ATB PIP) | MIC ATB combined with Example compound (ECO 190317; MIC of CIP, compound @8 μg/ml) | MIC ATB combined with Example (ECL P99; ATB ATM) | MIC ATB combined with Example (ECL P99; ATB FEP) | MIC ATB combined with Example (ECL P99; ATB MEM) | MIC ATB combined with Example (ECL P99; ATB PIP) | MIC ATB combined with Example compound (ECL P99; MIC of CIP, compound @8 μg/ml) | MIC ATB combined with Example (SAU 29213; ATB ATM) | MIC ATB combined with Example (SAU 29213; ATB FEP) | MIC ATB combined with Example (SAU 29213; ATB MEM) | MIC ATB combined with Example (SAU 29213; ATB PIP) | MIC ATB combined with Example compound (SAU 29213; MIC of CIP) | MIC ATB combined with Example compound (SAU 29213; MIC of CPO) | MIC ATB combined with Example (KPN UFR42; ATB ATM) | MIC ATB combined with Example (KPN UFR42; ATB FEP) | MIC ATB combined with Example (KPN UFR42; ATB MEM) | MIC ATB combined with Example (KPN UFR42; ATB PIP) | MIC ATB combined with Example compound (KPN UFR42; MIC of CIP) | MIC ATB combined with Example compound (KPN UFR42; MIC of CPO) | MIC ATB combined with Example (KPN BAA-1898; ATB ATM) | MIC ATB combined with Example (KPN BAA-1898; ATB FEP) | MIC ATB combined with Example (KPN BAA-1898; ATB MEM) | MIC ATB combined with Example (KPN BAA-1898; ATB PIP) | MIC ATB combined with Example compound (KPN BAA-1898; MIC of CIP, compound @8 μg/ml) | MIC ATB combined with Example (KPN 6299; ATB ATM) | MIC ATB combined with Example (KPN 6299; ATB FEP) | MIC ATB combined with Example (KPN 6299; ATB MEM) | MIC ATB combined with Example (KPN 6299; ATB PIP) | MIC ATB combined with Example compound (KPN 6299; MIC of CIP, compound @8 μg/ml)
<0.00012 µg/mL: MIC ATB combined with Example compound (SAU 29213; MIC of RIF)
<0.0020 µg/mL: MIC ATB combined with Example compound (SPN 49619; MIC of ERY) | MIC ATB combined with Example compound (SAU 29213; MIC of DAP) | MIC ATB combined with Example compound (SAU 29213; MIC of ERY) | MIC ATB combined with Example compound (SAU 29213; MIC of SYN)
